Non-standard residues stand in square brackets, D forms with d. No end group written: not given here. pGlu = O=C1CC[C@@H](C(=O)O)N1; Gip = not defined here
Legend:
[1] = system: CaCo2 monolayers (tight junctions); assay: Inhibition of agonist-induced Lucifer Yellow flux through CaCo2 monolayers; conditions: for Reduced LY Permeability: inhibition of the increase in Lucifer Yellow permeability induced by SEQ ID NO:70 (FCIGRL), CaCo2 monolayers
Source text: (§1) Measurement of the Inhibition of the Decrease in Trans Epithelial Electric Resistance (TEER) and Epithelial Flux of a Fluorescent Marker Lucifer Yellow
(§2) Antagonists of tight junctions can be identified by their ability to prevent or decrease the enhancement of the flux of compounds (e.g. Lucifer Yellow) through the monolayer induced by agonists of tight junctions (e.g., SEQ ID NO: 70). Antagonists of tight junctions can also be identified by their ability to prevent the decrease in TEER induced by agonists of tight junctions (e.g., SEQ ID NO: 70).
(§3) Tight junction antagonists can be identified using the following method:
(§4) Prepare Modified Hank's Balanced Salt Solution (MHBSS) by obtaining IL bottle of HBSS removing 10 ml of HBSS and replacing it with 10 ml HEPES buffer pH 7.0. Adjust pH to 7.4±0.1 using concentrated NaOH (10N).
(§5) Remove Caco-2 cells from incubator, grown on 12-well, […], polycarbonate Transwell® filters (Corning) and record passage number, date cells seeded and age in days.
(§6) Aspirate cell culture medium from both the apical (AP) and basolateral (BL) compartments, replacing with 0.5 ml and 1.5 ml of MHBSS, respectively. Incubate cells at 37° C. for 30 minutes.
(§7) Prepare a stock solution of the Antagonist Pretreatment Solution by dissolving the appropriate amount of antagonist in MHBSS. Vortex or sonicate the solution until it is clear then adjust pH to 7.4±0.1 using 1N NaOH. Preincubate each filter for 30 min with these solutions at 37° C. and 50 RPM.
(§8) Prepare stock solutions of Antagonist Treatment Solution by dissolving appropriate amounts of antagonist and agonist (for example, a peptide agonist such as a peptide having the sequence FCIGRL (SEQ ID NO: 70)) in 7.5 mM Lucifer Yellow solution in MHBSS. Vortex or sonicate the solution until it is clear then adjust pH to 7.4±0.1 using 1N NaOH.
(§9) Aspirate Antagonist Pretreatment Solution from the apical compartment of each filter (n=3 per condition) and replace with 0.5 ml of control and test solutions.
(§10) Place all plates into incubator set at 37° C. (±0.2), 50 RPM (±5) for a total of 180 minutes.
At t=60, 120 and 180 minutes remove 100 μl from each basolateral compartment and place it in a 96-well plate for Lucifer Yellow analysis, replace with 100 μl of HBSS.
Make a Lucifer Yellow standard curve with the following dilutions (7500 μM, 3750 μM, 750 μM, 375 μM, 75 μM, 37.5 μM, 7.5 μM, 3.75 μM, 0.75 μM) and pipette 100 μL of each into a 96-well plate except for the first three standards mentioned above which require a 1:10 dilution prior to transferring to the 96-well plate.
At t=0 make 1:10 dilutions of each starting Antagonist Treatment Solution mentioned above and pipette 100 μL of each into a 96-well plate.
At t=180 make 1:10 dilutions of Antagonist Treatment Solution from the apical compartment of each filter and pipette 100 μL of each into the 96-well plate.
Analyze each 96-well plate in a Tecan Spectra Fluor Plus using Magellan at 485 and 535 nm.
(§11) Cells: Caco-2 cells passage 40-60 grown on Transwell® plates for 21-28 days
(§12) SEQ ID NO: 70 is a 6-mer peptide tight junction agonist having the sequence FCIGRL. See US patent publication US 2005/0059593 A1. In the following tables + indicates attenuation of the effects of the tight junction agonist were observed and − indicates no attenuation of the effects of the tight junction agonist were observed.

[2] = system: CaCo2 monolayers (tight junctions); assay: Inhibition of agonist-induced decrease in trans epithelial electric resistance (TEER) of CaCo2 monolayers; conditions: for Prevented TEER Reduction: inhibition of the reduction in TEER induced by SEQ ID NO:70 (FCIGRL), CaCo2 monolayers
Source text: as §1, §2, §3, §4, §5, §6
Using the MilliCell®-ERS instrument (Millipore), measure and record the transepithelial electrical resistance (TEER) across each filter and record.
as §7, §8, §9, §10
At t=30, 60, 120 and 180 minutes, measure and record the transepithelial electrical resistance (TEER) across each filter using the MilliCell-ERS instrument.
as §11, §12

[3] = agonist alone, compared to vehicle alone

Row | Substance | Reduced LY Permeability [1] | Prevented TEER Reduction [2] | Enhancement of Lucifer Yellow permeability through CaCo2 monolayers [1, 3] | Decrease of TEER in CaCo2 monolayers [2, 3]
1 | (d)Gln-(d)Pro-Gly ([dQ]-[dP]-Gly) [SEQ ID NO: 12] | − | − |  | 
2 | (d)Gln-Pro-Gly ([dQ]-Pro-Gly) [SEQ ID NO: 10] | + | + |  | 
3 | Ala-Pro-Gly (APG; Tight junction antagonist) [SEQ ID NO: 7] | + | + |  | 
4 | Ala-Pro-Gly (APG; Tight junction antagonist) [SEQ ID NO: 17] | + | + |  | 
5 | Arg-Pro-Gly (RPG; Tight junction antagonist) [SEQ ID NO: 20] | + | + |  | 
6 | Asn-Pro-Gly (NPG; Tight junction antagonist) [SEQ ID NO: 27] | + | + |  | 
7 | Asp-Pro-Gly (DPG; Tight junction antagonist) [SEQ ID NO: 19] | − | − |  | 
8 | FCIGRL [FCIGRL, reference compound] |  |  | 51 fold | 16 fold
9 | GGVLVQPG [SEQ ID NO: 1, reference compound] | + | + |  | 
10 | GVLVQPG [SEQ ID NO: 2] | − | − |  | 
11 | Gip-Pro-Ile ([Gip]-Pro-Ile; reading uncertain; also: printed as Gip-Pro-Ile) [SEQ ID NO: 67] | − | + |  | 
12 | Gln-(d)Pro-Gly (Gln-[dP]-Gly) [SEQ ID NO: 11] | + | + |  | 
13 | Gln-Ala-Gly (QAG; Tight junction antagonist) [SEQ ID NO: 8] | + | + |  | 
14 | Gln-Pro-Ala (QPA; Tight junction antagonist) [SEQ ID NO: 9] | + | + |  | 
15 | Gln-Pro-Gly (QPG; Tight junction antagonist) [SEQ ID NO: 6] | + | + |  | 
16 | Glp-Arg-Gly ([pGlu]-Arg-Gly) [SEQ ID NO: 47] | − | − |  | 
17 | Glp-Asn-Gly ([pGlu]-Asn-Gly) [SEQ ID NO: 46] | − | − |  | 
18 | Glp-Asp-Gly ([pGlu]-Asp-Gly) [SEQ ID NO: 50] | − | − |  | 
19 | Glp-Gln-Gly ([pGlu]-Gln-Gly) [SEQ ID NO: 37] | − | − |  | 
20 | Glp-Glu-Gly ([pGlu]-Glu-Gly) [SEQ ID NO: 41] | − | − |  | 
21 | Glp-Gly-Gly ([pGlu]-Gly-Gly) [SEQ ID NO: 48] | − | − |  | 
22 | Glp-His-Gly ([pGlu]-His-Gly) [SEQ ID NO: 45] | − | − |  | 
23 | Glp-Ile-Gly ([pGlu]-Ile-Gly) [SEQ ID NO: 43] | − | − |  | 
24 | Glp-Leu-Gly ([pGlu]-Leu-Gly) [SEQ ID NO: 52] | − | − |  | 
25 | Glp-Lys-Gly ([pGlu]-Lys-Gly) [SEQ ID NO: 39] | − | − |  | 
26 | Glp-Met-Gly ([pGlu]-Met-Gly) [SEQ ID NO: 51] | − | − |  | 
27 | Glp-Phe-Gly ([pGlu]-Phe-Gly) [SEQ ID NO: 40] | − | − |  | 

Row | Substance | Reduced LY Permeability [1] | Prevented TEER Reduction [2] | Enhancement of Lucifer Yellow permeability through CaCo2 monolayers [1, 3] | Decrease of TEER in CaCo2 monolayers [2, 3]
28 | Glp-Pro-Arg ([pGlu]-Pro-Arg) [SEQ ID NO: 62] | − | − |  | 
29 | Glp-Pro-Asn ([pGlu]-Pro-Asn) [SEQ ID NO: 54] | − | + |  | 
30 | Glp-Pro-Asp ([pGlu]-Pro-Asp) [SEQ ID NO: 59] | − | − |  | 
31 | Glp-Pro-Gln ([pGlu]-Pro-Gln) [SEQ ID NO: 53] | − | − |  | 
32 | Glp-Pro-Glu ([pGlu]-Pro-Glu) [SEQ ID NO: 65] | − | − |  | 
33 | Glp-Pro-Gly ([pGlu]-Pro-Gly) [SEQ ID NO: 35] | + | + |  | 
34 | Glp-Pro-His ([pGlu]-Pro-His) [SEQ ID NO: 60] | − | − |  | 
35 | Glp-Pro-Leu ([pGlu]-Pro-Leu) [SEQ ID NO: 61] | − | − |  | 
36 | Glp-Pro-Lys ([pGlu]-Pro-Lys) [SEQ ID NO: 64] | − | − |  | 
37 | Glp-Pro-Met ([pGlu]-Pro-Met) [SEQ ID NO: 68] | − | + |  | 
38 | Glp-Pro-Phe ([pGlu]-Pro-Phe) [SEQ ID NO: 66] | − | − |  | 
39 | Glp-Pro-Pro ([pGlu]-Pro-Pro) [SEQ ID NO: 57] | − | + |  | 
40 | Glp-Pro-Ser ([pGlu]-Pro-Ser) [SEQ ID NO: 56] | − | − |  | 
41 | Glp-Pro-Trp ([pGlu]-Pro-Trp) [SEQ ID NO: 58] | − | − |  | 
42 | Glp-Pro-Tyr ([pGlu]-Pro-Tyr) [SEQ ID NO: 69] | − | + |  | 
43 | Glp-Pro-Val ([pGlu]-Pro-Val) [SEQ ID NO: 63] | − | − |  | 
44 | Glp-Ser-Gly ([pGlu]-Ser-Gly) [SEQ ID NO: 38] | − | − |  | 
45 | Glp-Thr-Gly ([pGlu]-Thr-Gly) [SEQ ID NO: 42] | − | − |  | 
46 | Glp-Trp-Gly ([pGlu]-Trp-Gly) [SEQ ID NO: 49] | − | − |  | 
47 | Glp-Tyr-Gly ([pGlu]-Tyr-Gly) [SEQ ID NO: 44] | − | − |  | 
48 | Glp-Val-Gly ([pGlu]-Val-Gly) [SEQ ID NO: 36] | − | − |  | 
49 | Glu-Pro-Gly (EPG; Tight junction antagonist) [SEQ ID NO: 23] | + | + |  | 
50 | Gly-(d)Pro-(d)Gln (Gly-[dP]-[dQ]) [SEQ ID NO: 16] | − | − |  | 
51 | Gly-(d)Pro-Gln (Gly-[dP]-Gln) [SEQ ID NO: 14] | − | − |  | 
52 | Gly-Pro-(d)Gln (Gly-Pro-[dQ]) [SEQ ID NO: 15] | − | − |  | 
53 | Gly-Pro-Gln (GPQ; Tight junction antagonist) [SEQ ID NO: 13] | + | + |  | 
54 | Gly-Pro-Gly (GPG; Tight junction antagonist) [SEQ ID NO: 22] | + | + |  | 

Source: patent US8785374B2, “Inhibitors of mammalian tight junction opening” (Alba Therapeutics Corporation, priority 2007, dated 2014)
